Reference: patent US20260262643A1, “HERBICIDAL BENZOXAZINES” (FMC CORPORATION, priority 2022, published 2026)

Experiments:
barnyardgrass [1] = assay: Test C preemergence; format: in vivo, Echinochloa crusgalli
In short: (§1)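 Pre: seeds in loam/sand, directed soil spray. Post: 1–2 leaf plants, 2–10 cm. Cmpd in non-phytotoxic solvent + surfactant. Greenhouse 10 d; visual rating vs untreated, 0 = none, 100 = complete control.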

blackgrass [2] = assay: Test C preemergence; format: in vivo, Alopecurus myosuroides
In short: as §1

corn [3] = assay: Test C preemergence; format: in vivo, Zea mays
In short: as §1

foxtail, giant [4] = assay: Test C preemergence; format: in vivo, Setaria faberi
In short: as §1

kochia [5] = assay: Test C preemergence; format: in vivo, Bassia scoparia
In short: as §1

oat, wild [6] = assay: Test C preemergence; format: in vivo, Avena fatua
In short: as §1

pigweed, palmer [7] = assay: Test C preemergence; format: in vivo, Amaranthus palmeri
In short: as §1

ragweed [8] = assay: Test C preemergence; format: in vivo, Ambrosia artemisiifolia
In short: as §1

ryegrass, Italian [9] = assay: Test C preemergence; format: in vivo, Lolium multiflorum
In short: as §1

soybean [10] = assay: Test C preemergence; format: in vivo, Glycine max
In short: as §1

wheat [11] = assay: Test C preemergence; format: in vivo, Triticum aestivum
In short: as §1

barnyardgrass [12] = assay: Test C postemergence; format: in vivo, Echinochloa crusgalli; settings: 10 days, 0 to 100 scale (0 no effect, 100 complete control)
In short: as §1

blackgrass [13] = assay: Test C postemergence; format: in vivo, Alopecurus myosuroides; settings: 10 days, 0 to 100 scale (0 no effect, 100 complete control)
In short: as §1

corn [14] = assay: Test C postemergence; format: in vivo, Zea mays; settings: 10 days, 0 to 100 scale (0 no effect, 100 complete control)
In short: as §1

foxtail, giant [15] = assay: Test C postemergence; format: in vivo, Setaria faberi; settings: 10 days, 0 to 100 scale (0 no effect, 100 complete control)
In short: as §1

kochia [16] = assay: Test C postemergence; format: in vivo, Bassia scoparia; settings: 10 days, 0 to 100 scale (0 no effect, 100 complete control)
In short: as §1

oat, wild [17] = assay: Test C postemergence; format: in vivo, Avena fatua; settings: 10 days, 0 to 100 scale (0 no effect, 100 complete control)
In short: as §1

pigweed, palmer [18] = assay: Test C postemergence; format: in vivo, Amaranthus palmeri; settings: 10 days, 0 to 100 scale (0 no effect, 100 complete control)
In short: as §1

ragweed [19] = assay: Test C postemergence; format: in vivo, Ambrosia artemisiifolia; settings: 10 days, 0 to 100 scale (0 no effect, 100 complete control)
In short: as §1

ryegrass, Italian [20] = assay: Test C postemergence; format: in vivo, Lolium multiflorum; settings: 10 days, 0 to 100 scale (0 no effect, 100 complete control)
In short: as §1

soybean [21] = assay: Test C postemergence; format: in vivo, Glycine max; settings: 10 days, 0 to 100 scale (0 no effect, 100 complete control)
In short: as §1

wheat [22] = assay: Test C postemergence; format: in vivo, Triticum aestivum; settings: 10 days, 0 to 100 scale (0 no effect, 100 complete control)
In short: as §1

galium = assay: Test C postemergence; format: in vivo, Galium aparine; settings: 10 days, 0 to 100 scale (0 no effect, 100 complete control)
In short: as §1

horseweed = assay: Test C postemergence; format: in vivo, Erigeron canadensis; settings: 10 days, 0 to 100 scale (0 no effect, 100 complete control)
In short: as §1

barnyardgrass [23] = assay: Test D flooded paddy test; format: in vivo, Echinochloa crus-galli; settings: 250 g ai/ha, applied to paddy water, visual rating after 13 to 14 days, scale 0 to 100 (0 no effect, 100 complete control)
In short: (§2)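 Plants at the 2-leaf stage were grown in pots flooded to 3 cm, and compound was applied directly into the paddy water, with depth kept throughout. After 13–14 days in a greenhouse, injury was rated visually against untreated controls on a 0–100 scale (100 = complete control); a dash means not tested.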

ducksalad = assay: Test D flooded paddy test; format: in vivo, Heteranthera limosa; settings: 250 g ai/ha, applied to paddy water, visual rating after 13 to 14 days, scale 0 to 100 (0 no effect, 100 complete control)
In short: as §2

rice = assay: Test D flooded paddy test; format: in vivo, Oryza sativa; settings: 250 g ai/ha, applied to paddy water, visual rating after 13 to 14 days, scale 0 to 100 (0 no effect, 100 complete control)
In short: as §2

sedge, umbrella = assay: Test D flooded paddy test; format: in vivo, Cyperus difformis; settings: 250 g ai/ha, applied to paddy water, visual rating after 13 to 14 days, scale 0 to 100 (0 no effect, 100 complete control)
In short: as §2

[24] = 500 g ai/ha, preemergence, 0 to 100 scale (0 no effect, 100 complete control)
[25] = Preemergence, 125 g ai/ha, 0 to 100 scale, 0 no effect, 100 complete control

Cc1cccc2c1OC(C(F)(F)F)CN2C(=O)c1ccnc(-n2cnc(C(C)C)n2)c1 (single isomer, unassigned) [Compound 328]
Barnyardgrass plant response rating (barnyardgrass [1]; [24]): 100
Plant response rating, Barnyardgrass (barnyardgrass [1]; [25]): 90
Blackgrass plant response rating (blackgrass [2]; [24]): 80
Plant response rating, Blackgrass (blackgrass [2]; [25]): 80
Corn plant response rating (corn [3]; [24]): 90
Plant response rating, Corn (corn [3]; [25]): 30
Foxtail, Giant plant response rating (foxtail, giant [4]; [24]): 100
Plant response rating, Foxtail, Giant (foxtail, giant [4]; [25]): 100
Kochia plant response rating (kochia [5]; [24]): 70
Plant response rating, Kochia (kochia [5]; [25]): 0
Oat, Wild plant response rating (oat, wild [6]; [24]): 90
Plant response rating, Oat, Wild (oat, wild [6]; [25]): 30
Pigweed, Palmer plant response rating (pigweed, palmer [7]; [24]): 100
Plant response rating, Pigweed, Palmer (pigweed, palmer [7]; [25]): 40
Ragweed plant response rating (ragweed [8]; [24]): 50
Plant response rating, Ragweed (ragweed [8]; [25]): 0
Ryegrass, Italian plant response rating (ryegrass, Italian [9]; [24]): 100
Plant response rating, Ryegrass, Italian (ryegrass, Italian [9]; [25]): 90
Soybean plant response rating (soybean [10]; [24]): 100
Plant response rating, Soybean (soybean [10]; [25]): 100
Wheat plant response rating (wheat [11]; [24]): 90
Plant response rating, Wheat (wheat [11]; [25]): 20
Plant response rating, Barnyardgrass (barnyardgrass [12]; 500 g ai/ha, postemergence): 90
Plant response rating, Barnyardgrass (barnyardgrass [12]; Postemergence, 125 g ai/ha): 60
Plant response rating, Blackgrass (blackgrass [13]; 500 g ai/ha, postemergence): 80
Plant response rating, Blackgrass (blackgrass [13]; Postemergence, 125 g ai/ha): 60
Plant response rating, Corn (corn [14]; 500 g ai/ha, postemergence): 70
Plant response rating, Corn (corn [14]; Postemergence, 125 g ai/ha): 20
Plant response rating, Foxtail, Giant (foxtail, giant [15]; 500 g ai/ha, postemergence): 90
Plant response rating, Foxtail, Giant (foxtail, giant [15]; Postemergence, 125 g ai/ha): 90
Plant response rating, Kochia (kochia [16]; 500 g ai/ha, postemergence): 80
Plant response rating, Kochia (kochia [16]; Postemergence, 125 g ai/ha): 50
Plant response rating, Oat, Wild (oat, wild [17]; 500 g ai/ha, postemergence): 40
Plant response rating, Oat, Wild (oat, wild [17]; Postemergence, 125 g ai/ha): 20
Plant response rating, Pigweed, Palmer (pigweed, palmer [18]; 500 g ai/ha, postemergence): 90
Plant response rating, Pigweed, Palmer (pigweed, palmer [18]; Postemergence, 125 g ai/ha): 50
Plant response rating, Ragweed (ragweed [19]; 500 g ai/ha, postemergence): 60
Plant response rating, Ragweed (ragweed [19]; Postemergence, 125 g ai/ha): 40
Plant response rating, Ryegrass, Italian (ryegrass, Italian [20]; 500 g ai/ha, postemergence): 90
Plant response rating, Ryegrass, Italian (ryegrass, Italian [20]; Postemergence, 125 g ai/ha): 50
Plant response rating, Soybean (soybean [21]; 500 g ai/ha, postemergence): 100
Plant response rating, Soybean (soybean [21]; Postemergence, 125 g ai/ha): 100
Plant response rating, Wheat (wheat [22]; 500 g ai/ha, postemergence): 30
Plant response rating, Wheat (wheat [22]; Postemergence, 125 g ai/ha): 30
Plant response rating, Galium (galium; 500 g ai/ha, postemergence): 100
Plant response rating, Galium (galium; Postemergence, 125 g ai/ha): 80
Plant response rating, Horseweed (horseweed; 500 g ai/ha, postemergence): 60
Plant response rating, Horseweed (horseweed; Postemergence, 125 g ai/ha): 0
Plant response rating, Barnyardgrass (Flood) (barnyardgrass [23]): 15
Plant response rating, Ducksalad (Flood) (ducksalad): 30
Plant response rating, Rice (Flood) (rice): 0
Plant response rating, Sedge, Umbrella (Flood) (sedge, umbrella): 85
